Laboratory results published in US11219627B2, “Clearance of amyloid beta” (priority 2014, dated 2022).

Assays:
[1] = tested on: patients with moderate, but not mild Alzheimer's disease; conditions: 36-week study; cited from earlier work
[2] = tested on: mild to moderate Alzheimer patients; conditions: 78-week study; cited from earlier work
[3] = liver microsome stability; assay type: in vitro ADME, Mouse
[4] = tested on: Primary rat cultured cortical neurons; conditions: cited from earlier work
patients with mild AD = conditions: 12 weeks; cited from earlier work
CaCo-2 cells = assay: in vitro permeability of a layer of CaCo-2 cells; assay type: in vitro ADME, human; conditions: for mean A−>B Papp (apparent permeability): test conc 50 μM
Bv-2 microglial cells = assay: Abeta 1-42 oligomer clearance in microglial Bv-2 cell culture; assay type: cell-based; conditions: applied for 24 hours, 0.11 to 0.67 μM; oligomerized Aβ1-42 10 μM for 6 h
Procedure: Abeta oligomers were prepared using beta-amyioid (1-42) from American Peptide (Product #62-0-80). One aliquot was dissolved in an adequate volume of TBS (50 mM Tris-Buffer, 150 mM NaCl, pH=7.4) to achieve a final concentration of 1.7 mg/ml (corresponding to 340 μM). The solution was sonicated for 2 minutes and then diluted 1:2 in water to obtain a final concentration of 170 μM. Next, the Abeta was allowed to aggregate at 4′C for 48 hours. Prior to application, the solution was sonicated for another minute.
Bv-2 microglial cells were kept in culture medium (DMEM medium, 10% FBS, 2 mM glutamine, 1% Penc/Strep) until 80-90% confluency. Cells were maintained at 37° C., 95% humidity and 5% CO2. Afterwards, cells were seeded in culture medium on 24-well plates at a cell density of 1×10^5 cells per well. After 24 h, the medium was exchanged for the treatment medium (DMEM medium, 5% FBS, 2 mM glutamine). […] The medium was separated by affinity (removing monomers) and the oligomers not phagocytosed were disaggregated by HFIP treatment and measured by MSD. […]
The immune assay was carried out according to the manual and plates were read on the Sector Imager (MSD). Analyte levels were evaluated according to adequate Aβ peptide standards (MSD). […] Group differences are evaluated by one-way ANOVA.

[5] = tested on: CA1 pyramidal neurons in the dorsal hippocampus; assay: dendritic spine assessment after 5 days ip treatment; assay type: in vivo, mice
Procedure: Adult C57B16 mice, (8 weeks old) were administered vehicle or SDL 11349, 0.005, 0.03, 0.07, 0.1 or 0.2 mg/kg, ip, per day for five days prior to sacrifice after rapid anesthetization with isofluorane. Brain tissue was sectioned into […] slices from anterior to posterior extremes.
Ballistic dye labelling was performed, followed by laser-scanning confocal microscopy (Olympus FV1000) using a 63× objective (1.42 NA) to scan individually labelled neurons at high resolution (0.103×0.103×0.33 μm voxels). Target neurons were identified in the brain region of interest by anatomical location and cell morphology. Microscopy was performed blind to experimental conditions. A minimum of 5 samples per animal were measured for each segment.
Blind deconvolution (AutoQuant) was applied to raw three-dimensional digital images which were then analyzed for spine density and morphology by trained analysts. Individual spines were measured manually for (a) head diameter, (b) length, and (c) neck thickness from image Z-stacks using custom-built Afraxis ESP software. Each dendrite was analyzed by 3 independent analysts.
Automated image assignment software (C++) distributed images to analysts in a randomized manner and ensured that each analyst performed measurements of near equal numbers of dendrites per group. Analysts were blinded to all experimental conditions. […] For spine density and spine morphological classification, data across analysts were averaged to report data for each dendrite. Data population values (N's) were reported from dendrites collected equally from all mice.
Values are reported in tables and plots as group means±standard errors of the mean (SEMs). For all group comparisons of parametric values, statistical significance was determined using the analysis of variance test (ANOVA; SPSS). Post-hoc comparisons were assessed using the Student's t-test (2 tails). […]
Dendritic spine morphology was analyzed from samples taken from secondary apical dendrites, and secondary basal dendrites of CA1 pyramidal neurons in the dorsal hippocampus. […] A 50 μm segment was analyzed from each location.

α7 nicotinic receptors = biological target: T1, α7 nicotinic receptors (Rattus norvegicus, UniProt Q05941); conditions: cited from earlier work
T1 construct: Primary cultured rat neurons can be depolarized by the application of 1.5 mM choline; endogenous in cells; host or cells: primary cultured rat neurons

[6] = stability in mouse plasma
Rat cortical neurons = assay: neurite network assessment with Aβ1-42 oligomers in cortical cell culture; assay type: cell-based
Procedure: Rat cortical neurons were cultured as described by Callizot et al (J Neurosci Res 2013, 91:706-716). On day 11 of culture, Aβ oligomer solution, 20 μM, was applied. The Aβ oligomer preparation, having an average weight of 90 kDa, prepared as described by Callizot et al (op cit) contained only diffusible species, not fibrils or protofibrils. Briefly, Aβ1-42 peptide at a concentration of 40 μM was dissolved in the culture medium, gently agitated for 3 days at 37° C. in the dark, and used immediately after dilution. SDL 11349 and BDNF (50 ng/ml) were dissolved in culture medium (maximum of 0.1% DMSO final concentration) then pre-incubated with primary cortical neurons for 24 h before the Aβ1-42 oligomer solution application.
The oligomers were incubated with the neurons and various concentrations of SDL 11349, or BDNF, 50 ng/ml, the positive control, for 24 hours, in 6 replicates per condition. Then the supernatant was removed and the neurons were fixed with a cold ethanol and acetic acid solution. The cells were permeabilized with 0.1% saponin and then incubated for 2 h with mouse monoclonal antibody […] microtubule-associated protein 2 (MAP-2). Subsequently, Alexa-Fluor 488 goat anti-mouse IgG was applied, and images were obtained and analyzed automatically.

acetylcholinesterase [7] = biological target: T2, acetylcholinesterase (Homo sapiens, UniProt P22303); assay: acetylcholinesterase inhibition; assay type: biochemical
Excerpt: This compound was first described in Han et al as a cholinesterase inhibitor in Bioorg. & Medicinal Chemistry Letters 1, 11 579-580 (1991).

acetylcholinesterase [8] = biological target: T2, acetylcholinesterase; conditions: read-out: IC50 for acetylcholinesterase inhibition; cited from earlier work
[9] = tested on: Mice with lesions of the nucleus basalis magnocellularis (nBm); conditions: cited from earlier work
mice = conditions: cited from earlier work
[10] = 78-week study; cited from earlier work
γ-secretase [11] = conditions: cited from earlier work
γ-secretase [12] = conditions: in vivo; cited from earlier work
[13] = tested on: adrenal chromaffin and human neuroblastoma cells; conditions: cited from earlier work
γ-secretase [14] = conditions: human, in vivo; cited from earlier work

T2 sequence (P22303 32-614, species assumed): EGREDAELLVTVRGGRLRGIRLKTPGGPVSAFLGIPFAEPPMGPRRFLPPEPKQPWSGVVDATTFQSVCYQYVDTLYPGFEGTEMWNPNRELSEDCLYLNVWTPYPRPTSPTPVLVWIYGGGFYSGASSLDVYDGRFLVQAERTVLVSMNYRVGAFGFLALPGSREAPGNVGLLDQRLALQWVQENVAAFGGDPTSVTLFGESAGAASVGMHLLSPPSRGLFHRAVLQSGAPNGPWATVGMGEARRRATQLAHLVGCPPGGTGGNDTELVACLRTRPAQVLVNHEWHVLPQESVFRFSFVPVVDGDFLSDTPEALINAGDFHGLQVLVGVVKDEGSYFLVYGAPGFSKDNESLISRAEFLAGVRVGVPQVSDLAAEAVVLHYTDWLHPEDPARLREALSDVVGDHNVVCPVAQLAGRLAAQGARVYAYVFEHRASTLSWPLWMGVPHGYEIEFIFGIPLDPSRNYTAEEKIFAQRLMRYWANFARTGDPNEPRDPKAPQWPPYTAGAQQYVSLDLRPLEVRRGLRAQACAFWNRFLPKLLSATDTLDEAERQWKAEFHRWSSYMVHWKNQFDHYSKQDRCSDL
T1 sequence (Q05941 23-502): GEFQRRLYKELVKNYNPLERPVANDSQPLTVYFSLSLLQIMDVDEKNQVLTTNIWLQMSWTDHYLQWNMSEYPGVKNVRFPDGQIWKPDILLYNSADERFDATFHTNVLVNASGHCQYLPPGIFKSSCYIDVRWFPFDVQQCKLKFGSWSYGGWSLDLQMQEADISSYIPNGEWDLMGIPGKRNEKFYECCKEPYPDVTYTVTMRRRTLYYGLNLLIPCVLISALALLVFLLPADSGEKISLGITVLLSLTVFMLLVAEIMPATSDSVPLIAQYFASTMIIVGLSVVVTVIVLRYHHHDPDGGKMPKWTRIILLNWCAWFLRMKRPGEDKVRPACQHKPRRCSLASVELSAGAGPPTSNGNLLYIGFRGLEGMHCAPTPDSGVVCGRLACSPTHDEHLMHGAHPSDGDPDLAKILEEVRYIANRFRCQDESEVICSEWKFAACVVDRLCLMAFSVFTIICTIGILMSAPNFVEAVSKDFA

Oc1c(I)cc(Cl)c2cccnc12 [Clioquinol]
ADAS-cog [1]: decreased deterioration on the ADAS-cog

O[C@H]1[C@H](O)[C@@H](O)[C@H](O)[C@@H](O)[C@@H]1O [ELND005, scyllo-inositol]
CSF Aβ and ventricular volume [2]: Significant decreases in CSF Aβ and increases in ventricular volume | cognitive or behavioral tests [2]: no benefit on any cognitive or behavioral test

COc1ccc2c3c1O[C@H]1C[C@@H](O)C=C[C@@]31CCN(C)C2 [Galanthamine HBr]
NADPH-dependent T1/2 (half-life) ([3]; 5.0 μM, Mouse): >1 h | NADPH-free T1/2 (half-life) ([3]; 5.0 μM, Mouse): >1 h

CN1CCCC1c1cccnc1 (centres unmarked) [Nicotine]
protection against Aβ plus glutamate toxicity [4]: protective against Aβ plus glutamate toxicity

CN(C)Cc1ccc2c(Cl)cc(Cl)c(O)c2n1 [PBT2]
CSF Aβ42 (patients with mild AD): decreased significantly

CNC(=C[N+](=O)[O-])NCCSCc1ccc(CN(C)C)o1 [Ranitidine]
mean A−>B Papp (apparent permeability) (CaCo-2 cells): 1.1 10^−6 cm s^−1

CCCCNC(=O)O[C@H]1C=C[C@@]23CCN(C)Cc4ccc(OC)c(c42)O[C@H]3C1 [SDL 11349, n-butylcarbamate derivative (4aS,6R,8aS)-5,6,9,10,11,12-hexahydro-3-methoxy-11-methyl-4aH-[1]benzofuro[3a,3,2-ef][2]benzazepin-6-ol]
reduction of β-amyloid oligomer concentration in the medium (Bv-2 microglial cells): 38-40% | total spine density, basal samples ([5]; 0.005-0.2 mg/kg ip per day for five days): no effect | total spine density, apical dendritic samples, versus vehicle ([5]; 0.005-0.2 mg/kg ip per day for five days, all dose groups): statistically significant difference (p<0.05, 2-tailed t-test) or trend (p<.01) compared to vehicle controls | mature spines on apical dendrites of CA1 pyramidal neurons ([5]; treatment for 5 days): specifically increases mature spines | enhancement of the depolarization caused by choline (α7 nicotinic receptors; 1 μM, 1.5 mM choline): 15.9±2.1% | enhancement in presence of FK-1, antibody to the galantamine recognition site (α7 nicotinic receptors): blocked | predicted oral bioavailability (CaCo-2 cells; based on in vitro CaCo-2 permeability): 80% | mean A−>B Papp (apparent permeability) (CaCo-2 cells): 20.8 10^−6 cm s^−1 | plasma concentrations at two hours compared with galantamine [6]: slightly lower than those of galantamine | stability in mouse plasma [6]: stable for greater than two hours | effect on Aβ oligomer-induced loss of neurite network (Rat cortical neurons; 1 μM, Aβ oligomer 20 μM, 24 h): blocked the toxic effect of the Aβ oligomers | enzymatic activity relative to galantamine (acetylcholinesterase [7]): about 36% | IC50 (acetylcholinesterase [8]): 1.09 µM | NADPH-free T1/2 (half-life) ([3]; 5.0 μM, Mouse): >1 h | half-life in liver microsomes ([3]; in-vitro preparation): greater than 60 minutes | microsomal CLint at 5 μM ([3]; liver microsomes, 5.0 μM, Mouse, read-out: NADPH-dependent CLint (microsomal intrinsic clearance)): 23.5 µL/min/mg | additional time remaining in the lighted compartment versus saline ([9]; given during training, optimal performance): about 100 seconds | best dose for memory enhancement ([9]; passive avoidance): 0.5 mg/kg | dose at which decreased motility appeared (mice): > 30 mg/kg | lethality (no lethality up to) (mice): > 100 mg/kg | adverse effects observed (mice; doses of 50-100 mg/kg): wobbly and off-balance with rapid heart rate still present at 4 hours, but were recovered at 24 hours

NCCCS(=O)(=O)O [Tramiprosate]
ADAS-cog [10]: trend towards improvement on the ADAS-cog | hippocampal volume [10]: reduction of hippocampal volume loss

NC(=O)[C@@H](CCC(F)(F)F)N(Cc1ccc(-c2ncon2)cc1F)S(=O)(=O)c1ccc(Cl)cc1 [avagacestat]
CSF Aβ40 (γ-secretase [11]; human, in vivo): effectively reduces CSF Aβ40 | conversion to dementia (γ-secretase [11]; prodromal Alzheimer's disease, reduced CSF Aβ42): no reduction in conversion to dementia

CC(C)[C@H](O)C(=O)N[C@@H](C)C(=O)N[C@@H]1C(=O)N(C)CCc2ccccc21 [semagacestat]
CSF Aβ (γ-secretase [12]): potently decreased CSF Aβ | reason for termination of Phase III trials (γ-secretase [12]): poorer performance in treated than placebo patients, and an increased incidence of skin cancer

Nc1c2c(nc3ccccc13)CCCC2 [tacrine]
neuroprotective effect [13]: did not occur

C[C@@H](C(=O)O)c1ccc(-c2ccccc2)c(F)c1 [tarenflurbil]
Phase III outcome (γ-secretase [14]): failed in Phase III

B1: BDNF: brain-derived neurotrophic factor, positive control, gold standard of the neurite assay (protein, UniProt P23560 19-247, looked up)
Neurotrophic factor BDNF …: APMKEANIRGQGGLAYPGVRTHGTLESVNGPKAGSRGLTSLADTFEHVIEELLDEDQKVRPNEENNKDADLYTSRVMLSSQVPLEPPLLFLLEEYKNYLDAANMSMRVRRHSDPARRGELSVCDSISEWVTAADKKTAVDMSGGTVTVLEKVPVSKGQLKQYFYETKCNPMGYTKEGCRGIDKRHWNSQCRTTQSYVRALTMDSKKRIGWRFIRIDTSCVCTLTIKRGR
effect on Aβ oligomer-induced loss of neurite network (Rat cortical neurons; 50 ng/ml, positive control): preserves the neurite network
